The text below walks through data of US20090270373A1, “TREATMENT OF DOWN SYNDROM WITH BENZODIAZEPINE RECEPTOR ANTAGONISTS” (Cypress Biosciences, Inc., priority 2008, published 2009).

Type in all cases: in vivo, mouse
For test [1], the system named is Ts65Dn mice. Kind of test: Modified spontaneous alternation task (T-maze) in Ts65Dn mice (paper Examples 1 and 2). The following applies: 5 to 30 doses, 3 mg/kg in milk orally or 1 mg/kg i.p. On the procedure: (§1) Flumazenil may also be tested for its effects on declarative memory in the novel object recognition test and in a modified spontaneous alternation task. Wild-type and Ts65Dn mice may be administered flumazenil (3 mg/kg in milk via voluntary oral feeding or 1 mg/kg i.p.). The wild-type and Ts65Dn mice are administered from 5 to 30 doses of milk or milk-flumazenil (or saline or flumazenil solution i.p.). The mice are then subjected to two repetitions of novel object recognition testing or three daily T-maze sessions at the tail end of the treatment regimen. […] Comparison of treated and untreated Ts65Dn mice will provide controls for any possible arm bias in the spontaneous alternation task.
as §1, with “Bretazenil may” for “Flumazenil may”, “administered bretazenil” for “administered flumazenil”

Test [2] concerns Ts65Dn mice. On the procedure:
(§2) A 4-week longitudinal crossover study is carried out following the method outlined by Fernandez et al., supra. Wild-type and Ts65Dn mice (3-4 months of age) are randomly assigned to groups receiving daily i.p. injections of saline or flumazenil (1.0 mg/kg), and are submitted to four weekly repetitions of object recognition testing, in which the animals are serially presented with four different object sets. At the 2-week midpoint of the experimental period, wild-type and Ts65Dn mice that have been receiving saline are randomly segregated into groups that either continue to receive daily saline injections or begin to receive daily injections of flumazenil. Conversely, wild-type and Ts65Dn mice that have been chronically administered flumazenil in the first 2 weeks of testing are switched onto a saline regimen. Alongside saline and flumazenil, bilobalide (i.p. 5.0 mg/kg) may be evaluated as a positive control. Bilobalide is a picrotoxin-like compound that may safely be administered for the whole 4-week experiment.
as §1
as §2, with “bretazenil” for “flumazenil”, “bretazenil.” for “flumazenil.”, “bretazenil,” for “flumazenil,”
as §1, with “Bretazenil may” for “Flumazenil may”, “administered bretazenil” for “administered flumazenil”

The test system of test [3] is Ts65Dn mice. Kind of test: Novel object recognition assay (Discrimination Index) in Ts65Dn mice, model of Down syndrome. On the procedure:
Following baseline determinations and group assignments, WT and Ts65Dn mice received intraperitoneal (i.p.) injections once/day (08:00) for the two-week duration of the drug treatment regimen (FIG. 1). Drugs were dissolved in physiological saline. Two drops of Tween 80 were used to facilitate solution formation for flumazenil. Picrotoxin was initially made up at 50× concentration in 20% ethanol and then diluted down to a […] solution with 0.4% ETOH in saline. Doses of drugs were based on previous behavioral research in mice (1 mg/kg for PTX and 10 mg/kg for flumazenil). Injections were given in a volume of 10 ml/kg. A vehicle control was run along side the treatment groups (0.4% ETOH in saline).
FIG. 1 graphically depicts the protocol. After habituation to the animal facility, mice were tested for baseline behaviors in the open-field locomotor assay (LMA)(30 min session) and the novel object recognition assay. Primary experimental groups were divided by genotype (Ts65Dn mice and wild-type control littermates). These two groups were further divided into drug treatments (vehicle, PTX and flumazenil) with a targeted n-size of 8 mice/group (24 WT and 24 Ts65Dn mice total). The group assignments were made in a semi-random process due to constraints in animal availability (staggered shipping) and choice of initial treatment groups (e-mail documentation between Bilsky laboratory and Cypress Bioscience on file). Daily morning injections began on Day 1 and went through the morning of Day 14. On Days 7/8 and 14/15 (13:00) mice were tested in the behavioral assay. Mice were kept for an additional two weeks and re-tested on Days 21/22 and 28/29 to assess the duration of the drug treatment effect.
The novel object recognition task is based on the innate tendency of rodents to differentially explore novel objects over familiar ones. The task is well validated for evaluating rodent memory and the effects of drug treatments on learning/memory performance.
Mice were trained and tested once per week, each experimental session separated by a one-week interval. Mice were submitted to daily handling sessions, and given an opportunity to habituate to an open field arena (48 cm×48 cm wide×25 cm), where they were exposed to two different objects (complex protocol), during a 5-minute training session. Objects were made from various non-porous materials that differ in shape and color. Mice were unable to climb onto the objects and the objects were generally consistent in height and volume, and were roughly symmetrical on a horizontal plane. Objects were positioned in two corners of the apparatus. To control for odor cues, the open field arena and the objects are thoroughly cleaned with 90% ethanol, dried, and ventilated for a few minutes between mice.
A 5-minute testing session was conducted 24 h after training. Here, the mice were presented with the object they had explored the previous day, and a new item (the objects being alternatively positioned in one corner or another in a balanced fashion within a given week, and from one week to another). […]

For `CCOC(=O)c1ncn2c1CN(C)C(=O)c1cc(F)ccc1-2` [flumazenil, 8-fluoro-5,6-dihydro-5-methyl-6-oxo-4H-imidazo[1,5-a]benzodiazepine-3-carboxylic acid ethyl ester], in the test on Ts65Dn mice [1], the spontaneous alternation entry is on record as “normal levels of alternation”. Besides, in the test on Ts65Dn mice [2] (4-week crossover, flumazenil or bretazenil 1.0 mg/kg i.p. for 2 weeks, bilobalide 5.0 mg/kg i.p. throughout), the object recognition performance result is on record as “normalized object recognition performance”. Moreover, the “discrimination indices in the object recognition task” value in the test on Ts65Dn mice [2] (5 to 30 doses, 3 mg/kg in milk orally or 1 mg/kg i.p.) was “on a par with those of wild-type mice”. For the same molecule, the “novel object recognition testing, long term” value in the test with Ts65Dn mice [2] (up to at least 2 months after treatment, treated for at least about 15 days) is given as “long-term improvement”. For the same molecule, the “Discrimination Index (DI)” value with Ts65Dn mice [3] (Week 1 of drug therapy, PTX 1 mg/kg, flumazenil 10 mg/kg i.p.) is listed as “positive effects”; in the test with Ts65Dn mice [3] (Week 2 of drug therapy), “positive effects”. Moreover, the “effect in the object recognition assay as compared to vehicle” value in the test with Ts65Dn mice [3] (flumazenil 10 mg/kg i.p., conclusion) is on record as “beneficial effect”.
